Measurements from publication PMC7614683, “A small molecule PI3Kα activator for cardioprotection and neuroregeneration” (Nature, 2023).

Assays:
[1] = test system: p110α-mutants D603K, D603A, 603DCN_AAA605, D603A/F1016S, L1006R, F1016S, L1006R/F1016S; test: ADP-Glo catalytic activity, mutants in the 1938-binding pocket; assay type: biochemical, human; conditions: all mutants
Procedure: Expression and purification of mutants resistant to 1938 were performed as follows. Sf9 insect cells (1.5 L) were cultured in Insect-XPRESS with L-Glutamine medium (Lonza BE12-730Q) at 27°C and co-infected with baculovirus encoding the regulatory p85α-subunit [LMB-MRC plasmid OP809] and the catalytic subunit p110α-D603K [LMB-MRC plasmid OP895], D603A [OP900], 603DCN_AAA605 [OP894], D603A/F1016S [OP901], L1006R [OP897], F1016S [OP898], L1006R/F1016S [OP899] at a density of 1.6 × 10^6 cells/ml. The culture was incubated for 47 h after infection, cells were collected, flash-frozen in liquid N2 and stored at -80°C. For purification, cell pellets were resuspended in 50 ml of lysis buffer (20 mM Tris, 150 mM NaCl, 5% glycerol, 1 mM TCEP, pH 8.0) containing EDTA-free Protease inhibitor tablets (1 tablet per 50 ml of solution), 0.5 mM PEFA and 5 μl of Piece® Universal Nuclease For Cell Lysis. The suspension was sonicated for 3 min on ice, with 10 sec on and 10 sec off. […]
(§1) For characterisation of the effects of 1938 on in vitro PI3K enzymology, all reactions were performed at room temperature with 384 white-polystyrene plates (Corning #3574). […] Data was expressed as velocity (nmol of ADP generated/nmol of enzyme/sec). […] Luminescence was read using a PHERAstar® plate reader with software version 5.41, and analyses were performed using GraphPad Prism 8/9.

PI3Kα G106V mutant = target: T1, PI3Kα G106V mutant (Homo sapiens, UniProt P42336, G106V); test: ADP-Glo catalytic activity, oncogenic mutant G106V; assay type: biochemical
T1 construct: Full-length human p110α was expressed either in a complex with full-length human p85α (for HTS, biochemistry and HDX-MS); 6xHis tag followed by TEV protease site (N); host or cells: Sf9, baculovirus
Procedure: Expression and purification of wild-type p110α (Cambridge MRC Laboratory for Molecular Biology (LMB-MRC) plasmid number OP831) in a complex with full-length p85α (LMB-MRC plasmid OP809) was performed as described. The oncogenic mutants G106V (LMB-MRC plasmid JB35), N345K (LMB-MRC plasmid OP661) and E545K (LMB-MRC plasmid OP663) were also purified using this protocol. Briefly, 10 litres of Spodoptera frugiperda (Sf9) cell culture at a density of 1.0 x 10^6 cells/ml were co-infected with a p85α-encoding virus [LMB-MRC plasmid OP809]. and a virus encoding p110α with an N-terminal 6xHis tag followed by a tobacco etch virus (TEV) protease site [LMB-MRC plasmid OP831]. After a 48 h infection at 27°C, cells were harvested and washed with PBS. […]
as §1

T1 sequence (P42336 whole entry G106V): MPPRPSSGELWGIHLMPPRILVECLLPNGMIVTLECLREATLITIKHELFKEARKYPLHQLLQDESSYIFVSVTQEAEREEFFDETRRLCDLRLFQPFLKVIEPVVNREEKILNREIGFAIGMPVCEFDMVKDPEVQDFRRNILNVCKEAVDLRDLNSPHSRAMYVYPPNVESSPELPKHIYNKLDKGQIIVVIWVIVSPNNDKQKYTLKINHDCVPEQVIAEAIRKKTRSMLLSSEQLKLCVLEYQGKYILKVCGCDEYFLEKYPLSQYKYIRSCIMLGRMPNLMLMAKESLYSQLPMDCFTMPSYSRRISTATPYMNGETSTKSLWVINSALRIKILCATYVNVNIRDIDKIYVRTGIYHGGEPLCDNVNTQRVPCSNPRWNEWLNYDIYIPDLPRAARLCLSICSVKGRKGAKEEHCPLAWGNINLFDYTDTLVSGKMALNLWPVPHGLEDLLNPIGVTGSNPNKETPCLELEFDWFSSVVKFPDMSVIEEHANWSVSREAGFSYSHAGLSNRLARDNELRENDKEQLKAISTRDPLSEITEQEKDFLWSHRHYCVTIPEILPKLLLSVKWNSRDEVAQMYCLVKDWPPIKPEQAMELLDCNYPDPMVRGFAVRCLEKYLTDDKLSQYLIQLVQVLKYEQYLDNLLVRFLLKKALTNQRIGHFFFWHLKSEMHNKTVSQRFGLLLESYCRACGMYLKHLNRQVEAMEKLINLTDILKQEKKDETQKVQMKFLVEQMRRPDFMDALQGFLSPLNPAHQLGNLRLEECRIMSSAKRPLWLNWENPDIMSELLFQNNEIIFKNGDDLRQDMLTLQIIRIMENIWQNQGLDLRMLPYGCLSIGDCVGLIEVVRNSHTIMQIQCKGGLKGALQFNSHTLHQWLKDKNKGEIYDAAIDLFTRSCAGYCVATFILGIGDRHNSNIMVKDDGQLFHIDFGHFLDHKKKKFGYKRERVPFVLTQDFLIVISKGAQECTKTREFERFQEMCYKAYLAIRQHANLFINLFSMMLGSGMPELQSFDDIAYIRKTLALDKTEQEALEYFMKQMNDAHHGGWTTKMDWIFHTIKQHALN
T1 sequence (P27986 whole entry partner): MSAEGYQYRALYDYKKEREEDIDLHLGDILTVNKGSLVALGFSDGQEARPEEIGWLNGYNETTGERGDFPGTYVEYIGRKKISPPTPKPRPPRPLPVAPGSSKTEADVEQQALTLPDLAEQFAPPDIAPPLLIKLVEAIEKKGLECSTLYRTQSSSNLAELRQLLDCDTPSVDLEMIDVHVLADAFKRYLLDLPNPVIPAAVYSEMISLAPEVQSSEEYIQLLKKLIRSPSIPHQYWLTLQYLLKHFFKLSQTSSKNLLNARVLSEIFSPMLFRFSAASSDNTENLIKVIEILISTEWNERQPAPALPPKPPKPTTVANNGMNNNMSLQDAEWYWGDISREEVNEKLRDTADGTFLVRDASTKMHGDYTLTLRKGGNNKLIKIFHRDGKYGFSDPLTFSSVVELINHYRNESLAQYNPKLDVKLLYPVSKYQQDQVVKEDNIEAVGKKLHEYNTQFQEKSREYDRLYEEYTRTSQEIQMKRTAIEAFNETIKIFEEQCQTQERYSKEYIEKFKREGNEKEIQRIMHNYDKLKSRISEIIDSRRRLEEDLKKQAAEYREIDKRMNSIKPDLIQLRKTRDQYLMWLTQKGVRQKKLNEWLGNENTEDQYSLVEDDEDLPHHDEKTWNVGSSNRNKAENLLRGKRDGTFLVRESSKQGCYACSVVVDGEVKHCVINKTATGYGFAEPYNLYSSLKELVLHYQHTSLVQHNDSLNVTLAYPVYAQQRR

## CCN1CCN(c2ccc(Nc3cc(Nc4cccc5c4N(C(C)=O)CC5)ccn3)cc2)CC1 [Compound 1938]
[1]
  activation of 1938-binding pocket p110α-mutants: resistant to activation by 1938
PI3Kα G106V mutant
  activation of G106V mutant: levels comparable with stimulation with pY
